According to US20260354383A1, “AN HERBICIDAL COMBINATION, COMPOSITION AND METHOD OF CONTROLLING WEEDS USING THE SAME” (UPL Mauritius Limited, priority 2022, published 2026):

Legend:
[1] = tested on: Viola arvensis, Bromus spp., Lolium spp., Agropyron repens and Urtica urens; settings: Hoechst et al., 1991; cited from earlier work
[2] = tested on: Eleusine indica; experiment: Post-emergence herbicidal activity (greenhouse), Eleusine indica, Example 1; assay type: in vivo; settings: L-glufosinate ammonium 150
Experimental: (§1) The expected efficacy of a combination of L-glufosinate ammonium and the other herbicides was calculated using the well-established Colby method. Any difference between the observed and “expected” efficacy could be attributed to synergy between the two compounds.
(§2) In the Colby method, the expected (or predicted) response of a combination of herbicides is calculated by taking the product of the observed response for each individual component of the combination when applied alone, divided by 100, and subtracting this value from the sum of the observed response for each component when applied alone. An unexpected enhancement in efficacy of the combination is then determined by comparing the observed response of the combination to the expected (or predicted) response as calculated from the observed response of each individual component alone. If the observed response of the combination is greater than the expected (or predicted) response, or stated conversely, if the difference between the observed and expected response is greater than zero, then the combination is said to be synergistic or unexpectedly effective (Colby, S. R., Weeds, 1967(15), p. 20-22). The Colby method requires only a single dose of each herbicide applied alone and the mixture of both doses. The formula used to calculate the expected efficacy (EE) which was compared with the observed efficacy (OE) to determine the efficacy of the present disclosure is explained hereinbelow:
(§3) The expected efficacy for a combination of two active ingredients is as follows:
(§4) Evaluation of Post-Emergence Herbicidal Activity
(§5) Methodology: Greenhouse trials were conducted to evaluate the efficacy of the combination comprising L-glufosinate ammonium and clethodim on weeds Eleusine indica, Brachiaria decumbens, Spermacoce latifolia and weedy Glycine max.
(§6) The soil used was sandy clay loam—sand: 68.0%; silt: 8.0%; clay: 24.0%.
(§7) All treatments were in 3 replications per treatment with a spray volume of about 150 L/ha.
Example 1: Efficacy of L-Glufosinate Ammonium and Clethodim on Eleusine indica
The percentage efficacy was calculated after 3, 7, 28 and 35 days of application (DAA). The target weed was Eleusine indica, and the concentration of the herbicide and the results are recorded in the Table 1.

[3] = tested on: Brachiaria decumbens; experiment: Post-emergence herbicidal activity (greenhouse), Brachiaria decumbens, Example 2; assay type: in vivo; settings: L-glufosinate ammonium 150, clethodim 45 g a.i./ha
Experimental: as §1, §2, §3, §4, §5, §6, §7
Example 2: Efficacy of L-Glufosinate Ammonium and Clethodim on Brachiaria decumbens
The percentage efficacy was calculated after 7, 14, 21, 28 and 35 days of application (DAA). The target weed was Brachiaria decumbens, and the concentration of the herbicides and the results are recorded in the Table 2.

[4] = tested on: Spermacoce latifolia; experiment: Post-emergence herbicidal activity (greenhouse), Spermacoce latifolia, Example 3; assay type: in vivo; settings: 7 DAA
Experimental: as §1
as §2, with “The Colby method requires only a single dose of each herbicide applied alone and the mixture of both doses. The formula used to calculate the expected efficacy (EE) which was compared with the observed efficacy (OE) to determine the efficacy of the present disclosure is explained hereinbelow:” left out
The percentage efficacy was calculated after 7 days of application (DAA). The target weed was Spermacoce latifolia, and the concentration of the herbicide and the results are recorded in the Table 3.

[5] = tested on: weedy Glycine max; experiment: Post-emergence herbicidal activity (greenhouse), weedy Glycine max, Example 4; assay type: in vivo; settings: L-glufosinate ammonium 150
Experimental: as §1, §2, §3, §4, §5, §6, §7
Example 4: Efficacy of L-Glufosinate Ammonium and Clethodim on Weedy Glycine max
The percentage efficacy was calculated after 3, 7, 14, 21, 28 and 35 days of application (DAA). The target weed was weedy Glycine max, and the concentration of the herbicide and the results are recorded in the Table 4.

[6] = cited from earlier work

Compound | weed species either not combated, or only weakly combated [1] | % Control ([2]; 3 DAA) [%] | % Control ([2]; 7 DAA) [%] | % Control ([2]; 28 DAA) [%] | % Control ([2]; 35 DAA) [%] | % Control ([3]; 7 DAA) [%] | % Control ([3]; 14 DAA) [%] | % Control ([3]; 21 DAA) [%] | % Control ([3]; 28 DAA) [%] | % Control ([3]; 35 DAA) [%] | % Control [4] [%] | % Control ([5]; 3 DAA) [%] | % Control ([5]; 7 DAA) [%] | % Control ([5]; 14 DAA) [%] | % Control ([5]; 21 DAA) [%] | % Control ([5]; 28 DAA) [%] | % Control ([5]; 35 DAA) [%] | herbicidal activity relative to glyphosate ([6]; vs glyphosate) | herbicidal activity relative to paraquat ([6]; vs paraquat) | herbicidal activity relative to racemic glufosinate (DL-glufosinate) ([6]; vs racemic glufosinate)
CP(=O)(O)CCC(N)C(=O)O (racemic) [Glufosinate, DL-homoalanin-4-yl(methyl)phosphinic acid] | either not combated, or only weakly combated |  |  |  |  |  |  |  |  |  |  |  |  |  |  |  |  |  |  | 
CCSC(C)CC1CC(=O)C(/C(CC)=N/OC/C=C/Cl)=C(O)C1 (stereo not drawn) [Clethodim, clethodim] |  | 6.7 | 15 | 81.7 | 84.3 | 15 | 55 | 65 | 75 | 71 | 3 | 0 | 0 | 0 | 0 | 0 | 0 |  |  | 
CP(=O)(O)CC[C@H](N)C(=O)O [L-Glufosinate, (S)-2-amino-4-(hydroxy(methyl)phosphonoyl)butanoic acid] |  |  |  |  |  |  |  |  |  |  |  |  |  |  |  |  |  | about four times that of glyphosate | about twice that of paraquat | more than about twice that of racemic glufosinate
CP(=O)(O)CC[C@H](N)C(=O)O.N [L-glufosinate ammonium, ammonium (2S)-2-amino-4-(methylphosphinato)butyric acid] |  | 12.3 | 50.7 | 59.3 | 54.3 | 50 | 79.3 | 82 | 79.3 | 79.3 | 31.7 | 15 | 53.3 | 71 | 66.7 | 56.7 | 41.7 |  |  | 
